Source: PMC9458978, “Design, synthesis and biological evaluation of novel biphenylsulfonamide derivatives as selective AT2 receptor antagonists” (Frontiers in Chemistry, 2022)
“Also recorded” adds a separate entry of the source.

Key:
[1] = biological target: T1, AT2 receptor (Homo sapiens, UniProt P50052); assay: HEK-293 cell AT2 receptor binding assay ([125I]-CGP42112 displacement, HEK293-hAT2R)
T1 construct: expressed in transfected cells; host or cells: HEK-293
T1 sequence (P50052 1-363): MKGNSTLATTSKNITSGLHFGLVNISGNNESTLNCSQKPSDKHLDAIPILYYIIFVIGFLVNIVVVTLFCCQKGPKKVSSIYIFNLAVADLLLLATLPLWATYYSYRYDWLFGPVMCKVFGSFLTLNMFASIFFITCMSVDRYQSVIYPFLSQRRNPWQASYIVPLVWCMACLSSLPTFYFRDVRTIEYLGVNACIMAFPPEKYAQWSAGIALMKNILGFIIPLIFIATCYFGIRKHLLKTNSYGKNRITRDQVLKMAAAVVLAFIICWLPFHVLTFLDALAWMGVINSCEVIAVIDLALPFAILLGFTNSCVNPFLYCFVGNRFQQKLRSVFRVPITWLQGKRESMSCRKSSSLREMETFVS
Experimental: All of above methods were widely accepted and used to evaluate the binding activity of AT1 and AT2 receptors.
The lysis solution was mixed and centrifuged at 12,000 g for 10 min at 4°C. Details are shown in the Supplementary Material.
After HEK-293 cells were transfected with AT2 receptor, lysis buffer (150 mM NaCl, 0.1% Triton X-100, 50 mM Tris-HCl, 1 mM EDTA, protease inhibitor) was used to separate the cell membrane of HEK-293 cells[2],using 27-G Resuspend and mix the lysis solution, and centrifuge at 12,000 g for 10 minutes at 4 °C. The supernatant was collected and centrifuged for a further 60 minutes. The precipitated membrane extracts were buffered (150 mM NaCl, 10 mM MgCl2, 0.5 % SDS, 1 % Triton X-100, 50 mM Tris-Cl, 1 mM EDTA, protease inhibitor ) for resuspension. […]
mL containing 50 mM Tris-HCl (pH 7.4), 100 mM NaCl, 10 mM MgCl2, 1 mM […]
cpm, 0.03 nM), and variable concentrations of test substance. Samples were incubated at 25 ℃ for 2 h, and binding was terminated by filtration through Whatman GF/B glass-fiber filter sheets, which had been presoaked overnight with 0.3 % polyethylamine, using a Brandel cell harvester. The filterswere washed with 3×3 mL of Tris-HCl (pH 7.4) and transferred to tubes. The radioactivity was measured in a γ-counter. The characteristics of the Ang II binding AT1 receptor was determined by […]
Nonspecific binding was determined in the presence of 1 µM Ang II.The specific binding was determined by subtracting the nonspecific binding from the total bound The apparent dissociation constant Ki values were calculated from IC50 values using the Cheng-Prusoff equation. […]
(§1) one-site fit.All determinations were performed in triplicate. […]

[2] = test system: AT2 receptor; assay: Neurite outgrowth assay with NG108-15 cells (AT2 receptor function assay); conditions: for Function (AT2 receptor agonist / antagonist): 10 or 100 nM, with or without PD-123,319 (10 uM) or Ang II; for evidence of cell death: dilution series 1 pM to 1 uM, seen only at the highest concentration
Experimental: The ratio of cell neurite outgrowth was used to evaluate, and the details are shown in the Supplementary Material.
NG108-15 cells (China Center for Type Culture Collection CCTCC) were used to study the in vitro morphological effects. In their undifferentiated state, neuroblastoma × glioma hybrid NG108-15 cells havea rounded shape and divide actively. The cells were cultured from passage 18–25 in Dulbecco’s modified Eagle’s medium (DMEM, Gibco BRL, Thermo Fisher Technology (China) Co., Ltd, China) with 10% fetal bovine serum (FBS, Gibco), HAT supplement and 50 mg L^−1 gentamycin at 37°C in 75 cm^2 Nunclon Delta flasks in a humidified atmosphere of 95% air and 5% CO2, as previously described ([Buisson et al., 1992]). Subcultures were performed at subconfluency. Under these conditions, cells express mainly the AT2 receptor subtype ([Whitebread et al., 1991]). Cells were treated during 3 days, once a day (first treatment 24 h after plating), and micrographs were taken on the fourth day. The details of experimental grouping and administration method are shown in the Supplementary Material. […]
4. NG108-15 cell experiment steps […]
peptidic AT2 receptor agonist CGP-42112A induces neurite outgrowth. The […]
plated as described in the Experimental Section, and adequate test concentrations for […]
each compound were determined by testing a dilution series of each compound […]
ranging from 1 pM to 1 uM.
The chemicals used in the present study were obtained from the following sources: Dulbecco’s modified Eagle’s medium (DMEM), heat-inactivated fetal bovine serum (FBS), HAT supplement (hypoxanthine, aminopterin, thymidine), gentamycin from Gibco BRL (Burlington, Ontario, Canada), and Ang II from MedChemExpress

[3] = biological target: T2, AT1 receptor (Rattus norvegicus, UniProt P25095); assay: Rat liver membrane AT1 receptor binding assay ([125I]-Ang II displacement); conditions: displacement of [125I]-Ang II, rat liver membranes; means ± SE, triplicate; read-out: Ki (nM) AT1R
T2 construct: Rat liver membranes were prepared according to the method of Dudley et al; from tissue; host or cells: rat liver membranes
Experimental: The target compounds were evaluated for AT1 receptor binding affinity by displacement of [^125I]-Ang II from the AT1 receptor in rat liver membranes. The radio-iodinated AT2 receptor selective ligand [^125I]-CGP42112 was used to study AT2 receptor binding affinity in HEK-293 cells (HEK293-hAT2R) ([Dudley et al., 1990]; [Whitebread et al., 1991]). All of above methods were widely accepted and used to evaluate the binding activity of AT1 and AT2 receptors.
Rat liver membranes were prepared according to the method of Dudley et al ([Dudley et al., 1990]). After HEK-293 cells were transfected with the AT2 receptor, a lysis buffer was used to separate the cell membrane of HEK-293 cells ([Grieger et al., 2016]), using 27-G Resuspend. The lysis solution was mixed and centrifuged at 12,000 g for 10 min at 4°C. Details are shown in the Supplementary Material.
3. Radioligand binding assay steps
3.1 Rat Liver Membrane AT1 Receptor Binding Assay.
Rat liver membranes were prepared according to the method of Dudley et al[1].
Binding of [125I]-Ang II to membranes was conducted in a final volume of 0.5 mL containing 50 mM Tris-HCl (pH 7.4), 100 mM NaCl, 10 mM MgCl2, 1 mM EDTA, 0.025% bacitracin, 0.2% BSA (bovine serum albumin), liver homogenate corresponding to 5 mg of the original tissue weight, [125I]-Ang II (80000-85 000 cpm, 0.03 nM), and variable concentrations of test substance. Samples were incubated at 25 ℃ for 2 h, and binding was terminated by filtration through Whatman GF/B glass-fiber filter sheets, which had been presoaked overnight with 0.3 % polyethylamine, using a Brandel cell harvester. The filterswere washed with 3×3 mL of Tris-HCl (pH 7.4) and transferred to tubes. The radioactivity was measured in a γ-counter. The characteristics of the Ang II binding AT1receptor was determined by using six different concentrations (0.03-5 nmol/L) of the labeled [125I]-Ang II.
Nonspecific binding was determined in the presence of 1 µM Ang II.The specific binding was determined by subtracting the nonspecific binding from the total bound [125I]-Ang II.The apparent dissociation constant Ki values were calculated from IC50 values using the Cheng-Prusoff equation. […]
as §1

[4] = biological target: AT2R; conditions: Figure 5, tetrahydroisoquinoline antagonists, ref Smith et al., 2013, Rice et al., 2014, Smith and Muralidharan, 2015, 2016; cited from earlier work

T2 sequence (P25095 whole entry): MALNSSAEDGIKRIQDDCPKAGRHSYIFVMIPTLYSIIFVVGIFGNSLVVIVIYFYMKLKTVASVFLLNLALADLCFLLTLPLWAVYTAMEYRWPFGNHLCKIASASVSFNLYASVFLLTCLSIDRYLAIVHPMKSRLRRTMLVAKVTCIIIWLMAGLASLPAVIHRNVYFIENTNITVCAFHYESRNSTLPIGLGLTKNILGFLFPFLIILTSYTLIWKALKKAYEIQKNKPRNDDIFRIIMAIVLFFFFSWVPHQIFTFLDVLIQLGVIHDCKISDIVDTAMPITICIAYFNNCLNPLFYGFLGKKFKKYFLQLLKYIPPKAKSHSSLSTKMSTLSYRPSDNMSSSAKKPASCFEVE

Row | Molecule | Ki [1] [nM] | Function (AT2 receptor agonist / antagonist) ([2]; 3-day treatment) | evidence of cell death [2] | Ki [3] [nM] | Ki [4] [nM] | morphology compared to untreated cells ([2]; PD-123,319 alone) | ratio of cell neurite outgrowth (cells with neurites as percentage of total cells) ([2]; 3-day treatment, substance alone (Ang II 100 nM; compounds 10 or 100 nM)) [%]
1 | CC(C)Cc1ccc(S(=O)(=O)NC(=O)OC(C)C)c(-c2cccc(Cn3cncn3)c2)c1 [8d, Isopropyl((3’-((1H-1,2,4-triazol-1-yl)methyl)-5-isobutyl-[1,1′-biphenyl]-2-yl)sulfonyl)carbamate] | 116 ± 1.18 | antagonistic activity; also recorded: antagonist activity | evidence of cell death | 1786 ± 1.37 | – | – | –
2 | CCCCc1ccc(S(=O)(=O)NC(=O)OC(C)C)c(-c2cccc(Cn3cncn3)c2)c1 [8h, Isopropyl((3'-((1H-1,2,4-triazol-1-yl)methyl)-5-butyl-[1,1′-biphenyl]-2-yl)sulfonyl)carbamate] | 82.9 ± 1.19 | antagonistic activity; also recorded: antagonist activity | evidence of cell death | 1505 ± 1.11 | – | – | –
3 | CCCCOc1ccc(S(=O)(=O)NC(=O)CCCC)c(-c2cccc(Cn3cncn3)c2)c1 [8i, N-((3'-((1H-1,2,4-triazol-1-yl)methyl)-5-butoxy-[1,1′-biphenyl]-2-yl)sulfonyl)pentanamide] | 199.6 ± 1.17 | antagonistic activity; also recorded: AT2R antagonist; also recorded: antagonist activity | – | 1250 ± 1.12 | – | – | –
4 | CCCCOC(=O)NS(=O)(=O)c1ccc(OCCCC)cc1-c1cccc(Cn2cncn2)c1 [8j, Butyl((3'-((1H-1,2,4-triazol-1-yl)methyl)-5-butoxy-[1,1′-biphenyl]-2-yl)sulfonyl)carbamate] | 620.1 ± 1.27 | agonistic activity; also recorded: agonist activity; also recorded: AT2R agonist | – | 889.3 ± 1.24 | – | – | –
5 | CCCCOc1ccc(S(=O)(=O)NC(=O)OCC(C)C)c(-c2cccc(Cn3cncn3)c2)c1 [8k, Isobutyl((3'-((1H-1,2,4-triazol-1-yl)methyl)-5-butoxy-[1,1′-biphenyl]-2-yl)sulfonyl)carbamate] | 712.5 ± 1.17 | antagonistic activity; also recorded: AT2R antagonist; also recorded: antagonist activity | – | 775 ± 1.08 | – | – | –
6 | CCCCOc1ccc(S(=O)(=O)NC(=O)OC(C)C)c(-c2cccc(Cn3cncn3)c2)c1 [8l, Isopropyl((3'-((1H-1,2,4-triazol-1-yl)methyl)-5-butoxy-[1,1′-biphenyl]-2-yl)sulfonyl)carbamate] | 56.6 ± 1.16 | antagonistic activity; also recorded: AT2R antagonist; also recorded: antagonist activity | – | 2005 ± 1.16 | – | – | –
7 | CCCCc1ccc(S(=O)(=O)NC(=O)OC(C)C)c(-c2cccc(Cn3cccn3)c2)c1 [9h, Isopropyl((3'-((1H-pyrazol-1-yl)methyl)-5-butyl-[1,1′-biphenyl]-2-yl)sulfonyl)carbamate] | 138 ± 1.34 | antagonistic activity; also recorded: Antagonist | – | 1723 ± 1.07 | – | – | –
8 | COc1ccc(Cn2cnc3c2C[C@@H](C(=O)O)N(C(=O)C(c2ccccc2)c2ccccc2)C3)cc1C [EMA300] | – | – | – | – | 28 | – | –
9 | Cc1cc(Cn2cnc3c2C[C@@H](C(=O)O)N(C(=O)C(c2ccccc2)c2ccccc2)C3)ccc1N(C)C [PD-123,319, reference compound] | – | – | – | – | – | did not alter | –
10 | Ang II [reference compound] | – | – | – | – | – | – | ~20
